According to US10815238B2, “Antimicrobial compounds and methods of making and using the same” (BIOVERSYS AG, priority 2013, dated 2020):

How the values were obtained:
[1] = tested on: Staphylococcus aureus (S. aureus) 11540 strain; test: Standard microdilution assay, MIC against S. aureus 11540; assay type: cell-based; conditions: S. aureus 11540 strain, standard microdilution assay, cutoff 16 micrograms/mL, read-out: MIC S. aureus
Summary of the method: (§1)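 MIC determined by broth microdilution following CLSI protocols, with reference strains run in parallel for quality control. Activity scored +/− at a cutoff of 16 micrograms/mL.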

[2] = tested on: Eschericia coli (E. coli) strain ATCC25922; test: Standard microdilution assay, MIC against E. coli ATCC25922; assay type: cell-based; conditions: Escherichia coli; E. coli strain ATCC25922, standard microdilution assay; cutoff 16 micrograms/mL; read-out: MIC E. Coli
Summary of the method: as §1

MIC [1] [mg/L] | MIC [2] [mg/L] | Structure (SMILES)
< 16 | < 16 | C[C@H](N)CCCc1cc(Cl)c(F)c(-c2cc3cn(-c4ccc([C@H](C)N[C@@H](CCNC(=N)N)C(N)=O)cc4)c(=O)nc3[nH]2)c1 [Compound 363]
< 16 | < 16 | C[C@H](N)CCCc1cc(Cl)c(F)c(-c2cc3cn(-c4ccc(C(O)CNC(=N)N)cc4)c(=O)nc3[nH]2)c1 (stereo partly shown) [Compound 471]
< 16 | < 16 | CN/C(=C/[N+](=O)[O-])NCC[C@@H]1CCC[C@@H](c2ccc(-n3cc4cc(-c5cc(CCC[C@H](C)N)cc(Cl)c5F)[nH]c4nc3=O)cc2)N1 [Compound 517]
< 16 | < 16 | C[C@H](N)CCCc1cc(OC(F)(F)F)c(F)c(-c2cc3cn(-c4ccc(CN[C@@H](CN)CCNC(=N)N)cc4)c(=O)nc3[nH]2)c1 [Compound 380]
< 16 | < 16 | C[C@H](N)CCCc1cc(Cl)c(F)c(-c2cc3cn(-c4ccc(CN[C@@H](CCNC(=N)N)CCc5nccs5)cc4)c(=O)nc3[nH]2)c1 [Compound 519]
< 16 | < 16 | C[C@H](N)CCCc1cc(Cl)c(F)c(-c2cc3cn(-c4ccc(CN[C@@H](CN)CCNC(=N)N)cc4)c(=O)nc3[nH]2)c1 [Compound 379]
< 16 | > 16 | Cc1noc(C[C@@H]2CCC[C@@H](c3ccc(-n4cc5cc(-c6cc(CCC[C@H](C)N)cc(Cl)c6F)[nH]c5nc4=O)cc3)N2)n1 [Compound 497]
< 16 | < 16 | C[C@H](NCCCNC(=N)N)c1ccc(-n2cc3cc(-c4cc([C@H]5CC[C@@H](CN)O5)cc(Cl)c4F)[nH]c3nc2=O)cc1 [Compound 445]
> 16 | < 16 | C[C@@H](CN)CN1CC[C@@H](c2cc3cn(-c4ccc(CN5CCCNC5=N)cc4)c(=O)nc3[nH]2)C1 [Compound 574]
< 16 | < 16 | C=C[C@@H](C[C@@H](C)NCc1ccc(-n2cc3cc(-c4cc(CCC[C@H](C)N)cc(Cl)c4F)[nH]c3nc2=O)cc1)NC(=N)N [Compound 373]
< 16 | < 16 | C[C@H](N)CCCc1cc(OC(F)(F)F)c(F)c(-c2cc3cn(-c4ccc([C@@H]5CCC[C@@H](CCNc6ncc[nH]6)N5)cc4)c(=O)nc3[nH]2)c1 [Compound 553]
< 16 | < 16 | C[C@H](N)CCCc1cc(Cl)c(F)c(-c2cc3cn(-c4ccc([C@H]5CCC[C@H](CCNC6=NCCN6)N5)cc4)c(=O)nc3[nH]2)c1 [Compound 541]
< 16 | < 16 | C[C@H](N)CCCc1cc(Cl)c(F)c(-c2cc3cn(-c4ccc([C@@H]5CCC[C@@H](CCNC=N)N5)cc4)c(=O)nc3[nH]2)c1 [Compound 515]
< 16 | < 16 | C[C@H](N)CCCc1cc(OC(F)(F)F)c(F)c(-c2cc3cn(-c4ccc([C@H](C)NCC[C@H](CC(N)=O)NC(=N)N)cc4)c(=O)nc3[nH]2)c1 [Compound 344]
< 16 | > 16 | C[C@H](N)CCCc1cc(Cl)c(F)c(-c2cc3cn(-c4ccc(C5(N)CNC5)cc4)c(=O)nc3[nH]2)c1 [Compound 458]
< 16 | > 16 | C[C@H](N)CCCc1cc(Cl)c(F)c(-c2cc3cn(-c4ccc(C(=N)N)cc4)c(=O)nc3[nH]2)c1 [Compound 566]
< 16 | < 16 | C[C@@H](N)CCCc1cc(Cl)c(F)c(-c2cc3cn(-c4ccc([C@@H](C)NCCCNC(=N)N)cc4)c(=O)nc3[nH]2)c1 [Compound 370]
< 16 | < 16 | C[C@H](N)CCCc1cc(Cl)c(F)c(-c2cc3cn(-c4ccc([C@H](C)N5CC[C@@H](NC(=N)N)C5)cc4)c(=O)nc3[nH]2)c1 [Compound 431]
< 16 | < 16 | COC(=O)[C@H](CCNC(=N)N)N[C@@H](C)c1ccc(-n2cc3cc(-c4cc(CCC[C@H](C)N)cc(OC(F)(F)F)c4F)[nH]c3nc2=O)cc1 [Compound 362]
< 16 | < 16 | N=C(N)NCC[C@@H]1CCC[C@@H](c2ccc(-n3cc4cc(-c5cc(CCC[C@@H](N)CO)cc(Cl)c5F)[nH]c4nc3=O)cc2)N1 [Compound 484]
